Experimental data: the METLIN SMRT retention time set (Domingo-Almenara et al. 2019)

Experiment: gradient 5% acetonitrile 3 min, to 50% in 2 min, to 85% in 15 min, held 3 min, 100 µL/min
Settings: column: Zorbax Extend-C18 2.1 x 50 mm; eluents: water / acetonitrile, 0.1% formic acid
How it was run: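 Over 3 months, pure standards in mixtures of ~100 molecules were run by HPLC coupled to a quadrupole time-of-flight mass spectrometer in positive and negative ionization mode. The column was a Zorbax Extend-C18 (2.1 × 50 mm, 1.8 μm) at 100 μL/min, eluted with water and acetonitrile each holding 0.1% formic acid, with 40 μL dead and 900 μL dwell volumes. Retention time was determined from adduct peaks chosen by software and checked manually.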
Fc1ccc(CSc2ncnc3nc[nH]c23)cc1 showed an RP-LC retention time of 719 s. With CCN(C(=O)c1cc(OC)cc(OC)c1)c1nc(-c2ccccc2)cs1 the RP-LC retention time was 1260 s. For CCOC(=O)c1[nH]c(C)c(CCC(=O)N2CCCC(C(=O)NC(C)C)C2)c1C (stereo not given), the RP-LC retention time was 723 s. Work on COc1ccccc1-n1ccn(Cc2nc(-c3cccc(F)c3)no2)c(=O)c1=O yielded an RP-LC retention time of 861 s. With Cc1ccc(-c2noc(CN3N=NC4C(=O)N(c5ccc(C)c(C)c5)C(=O)C43)n2)cc1C (stereo not given) the RP-LC retention time was 1140 s. For Nc1c2ccccc2nc2ccccc12, the RP-LC retention time was 637 s. O=C(Cn1nc2c(Oc3ccc(F)cc3)nccn2c1=O)NC1CCCCC1 showed an RP-LC retention time of 804 s. For COc1ccc(NC(=O)N2CCCC2c2nc(-c3ccc(F)cc3F)no2)cc1F (stereo not given), the RP-LC retention time was 940 s. Fc1ccccc1-c1nc(-c2ccc3c(c2)ncn3CCN2CCCC2)no1 gave an RP-LC retention time of 629 s. In the case of COc1cc(NC(=O)CCl)ccc(=O)c1, the RP-LC retention time is reported as 631 s. In the case of O=C(CCc1nc2ccccc2s1)NC1CCN(C(=O)N2C[C@H]3C[C@H](C2)[C@H]2CCCC(=O)N2C3)CC1, the RP-LC retention time is reported as 661 s. With Cc1nn(C)cc1S(=O)(=O)Nc1nc2ccc(S(C)(=O)=O)cc2s1 the RP-LC retention time was 581 s. Work on COc1ccc(-c2nnc(-c3ccc(OC)c(S(=O)(=O)N4CCCCC4)c3)o2)cc1OC yielded an RP-LC retention time of 922 s. COc1cccc(S(=O)(=O)N2CCC(CN3CCCC(C)C3)CC2)c1 (stereo not given) gave an RP-LC retention time of 662 s. For O=C(Cn1c(=O)cc(-c2nc(-c3ccccc3)no2)c2ccccc21)N1CCCC1, the RP-LC retention time was 1000 s. For COc1ccc(-c2cc3n(n2)CCCN(C(=O)Cc2ccsc2)C3)cc1, the RP-LC retention time was 822 s. In the case of CCSc1nnc(-c2nn(C)c3c2CN(S(=O)(=O)c2cc(F)ccc2C)CC3)n1CC, the RP-LC retention time is reported as 988 s. Compound CC1CCN(S(=O)(=O)c2ccc(-c3nnc(C(=O)NCCc4ccc(Cl)cc4)o3)cc2)CC1 has an RP-LC retention time of 1160 s. With CCOc1ccc(C(=O)n2nc(C)c(S(=O)(=O)N3CCC(C)CC3)c2C)cc1 the RP-LC retention time was 1280 s. For CCOc1ccc(C(=O)NC(C(=O)Nc2nc3ccccc3[nH]2)C(C)CC)cc1OCC (stereo not given), the RP-LC retention time was 792 s. In the case of Cc1nc2cc(N3CC(C(=O)N4CCN(c5ccccc5F)CC4)CC3=O)ccc2o1 (stereo not given), the RP-LC retention time is reported as 788 s. For Cc1[nH]cnc1CN1CCc2c(c3ccccc3n2C)C1=O, the RP-LC retention time was 652 s. For O=c1c2cc3c(cc2nc(SCc2nc(-c4ccccc4)no2)n1Cc1ccncc1)OCO3, the RP-LC retention time was 776 s. Work on O=C(c1c[nH]c2ccccc12)N1C[C@@H]2C[C@H]1C[C@@H]2NS(=O)(=O)c1ccccc1 yielded an RP-LC retention time of 679 s. NC(=O)c1cc(N2CCOCC2)nc2c(Cl)cccc12 gave an RP-LC retention time of 720 s. In the case of CC(C)(C)C(=O)C(Oc1ccc(Cl)cc1)n1ccnc1 (stereo not given), the RP-LC retention time is reported as 780 s. CCn1c(N2CCCC(C(=O)NCc3ccco3)C2)cc(=O)n(C)c1=O (stereo not given) gave an RP-LC retention time of 731 s. With COCC1(O)CCOC2(CCN(Cc3ccc(C)cn3)CC2)C1 (stereo not given) the RP-LC retention time was 568 s. For COc1ccc(C(O)CN2CCN(c3ccc(C)cc3)CC2)cc1 (stereo not given), the RP-LC retention time was 663 s. For COc1ccc(OC)c(N2CC(c3nc4ccccc4n3CCN3CCOCC3)CC2=O)c1 (stereo not given), the RP-LC retention time was 597 s. CCCCOc1ccc(C(=O)Nc2ccc(-c3nc(C)no3)cc2)cc1 showed an RP-LC retention time of 1070 s. Work on CCCn1c(=O)sc2cc(S(=O)(=O)N3CCC(C(=O)N4CCCCC4)CC3)ccc21 yielded an RP-LC retention time of 876 s. In the case of Cc1ccc(CNC(=O)NCCn2cnc3cc(C(=O)NC4CCCC4)ccc32)cc1, the RP-LC retention time is reported as 652 s. For COc1ccc(S(=O)(=O)N2C[C@@H](F)C[C@H]2C(=O)N2CCCCC2)cc1, the RP-LC retention time was 762 s. CCOc1ccccc1C1NC(=O)N(CC(=O)Nc2ccc(C(F)(F)F)cc2)C2=C1C(=O)OC2 (stereo not given) showed an RP-LC retention time of 888 s. Work on Cc1ccc(CNC(=O)c2ccc(-c3cc(N4CCCC4)ncn3)cc2)o1 yielded an RP-LC retention time of 654 s. Work on CN(CCc1noc(COc2ccc(Cl)cc2Cl)n1)C(=O)c1ccco1 yielded an RP-LC retention time of 898 s. Compound CC1=C(C(=O)OC(C)C)C(c2cccc([N+](=O)[O-])c2)C(C(=O)OC2CN(C(c3ccccc3)c3ccccc3)C2)=C(N)N1 (stereo not given) has an RP-LC retention time of 947 s. For O=C(c1cnccn1)N1[C@H]2CC[C@@H]1c1cnc(-c3ccc(F)cc3)nc1C2, the RP-LC retention time was 810 s. Work on Cc1ccc(S(=O)(=O)N2CCc3nc(-c4ccccc4)ncc3C2)cc1Cl yielded an RP-LC retention time of 1240 s. Cc1ccccc1NC(=O)N(C)CC1CCOC1 (stereo not given) showed an RP-LC retention time of 704 s. For CCc1nn(CC(=O)NCCc2c[nH]c3ccccc23)c(=O)c2cc3sccc3n12, the RP-LC retention time was 842 s. COC(=O)c1cccc(NC(=O)Cn2c(C)cc(-c3nnc(C4CCC4)o3)c2C)c1 showed an RP-LC retention time of 882 s. CNC(=O)CCc1cc2cc(C)ccc2[nH]c1=O showed an RP-LC retention time of 623 s. Cc1cc(=O)n(CC(=O)Nc2cc(F)cc(F)c2)c(N2CCCCC2)n1 gave an RP-LC retention time of 733 s. Cc1ccsc1CCNC(=O)Cn1nc(C(=O)N2CCCC2)c2ccccc21 showed an RP-LC retention time of 824 s. For CCOc1cccc(C2c3[nH]c4ccccc4c3CCN2C(=O)C2CCC2)c1 (stereo not given), the RP-LC retention time was 1200 s. Work on O=C(CSc1nnc2c3ccccc3nc(-c3ccco3)n12)NCc1nc2ccccc2[nH]1 yielded an RP-LC retention time of 625 s. Work on CCOC(=O)c1ccccc1NC(=O)NCC(c1cccnc1)c1c[nH]c2ccccc12 (stereo not given) yielded an RP-LC retention time of 756 s. For NC(N)=NC(=O)c1nc(Cl)c(N2CCCCCC2)nc1N, the RP-LC retention time was 758 s. Cc1cc(=O)n(CC(=O)NC(C)C)c(N2CCc3ccccc3C2)n1 showed an RP-LC retention time of 665 s. CCCS(=O)(=O)c1nc2ccc(NS(=O)(=O)Cc3cc(C)ccc3C)cc2s1 gave an RP-LC retention time of 1040 s. In the case of Cc1ccc2nc(C)cc(C(=O)NCC(C)C)c2c1, the RP-LC retention time is reported as 631 s. With CCCc1cc(N2CCN(C(=O)c3nccc4ccccc34)CC2)nc2nncn12 the RP-LC retention time was 619 s. Work on CCN1C(=O)Cc2ccccc2C1C(=O)NCc1cccc(F)c1 (stereo not given) yielded an RP-LC retention time of 744 s. Compound c1cnn(-c2cc(N3CCSCC3)ncn2)c1 has an RP-LC retention time of 833 s. With Cc1ccc(CNC(=O)C(C)C2CCOCC2)o1 (stereo not given) the RP-LC retention time was 677 s. In the case of Cn1nc(-c2nnc(-c3ccc(F)cc3)o2)c2c1CCN(C(=O)Nc1ccccc1Cl)C2, the RP-LC retention time is reported as 892 s. With CCCc1nc(-c2cc3ccc(C)cc3nc2NC2CCCC2)no1 the RP-LC retention time was 968 s. In the case of CCn1ccc2cc(S(=O)(=O)N3CCC(C(=O)NCCCN4CCCCC4C)CC3)ccc21 (stereo not given), the RP-LC retention time is reported as 665 s. For Cc1cc(C)c2c(N3CCCCC3)nc(C(=O)N3CCN(C(C)C)CC3)nc2n1, the RP-LC retention time was 556 s. COc1ccc(C)cc1NC(=O)CCCn1cccc1 showed an RP-LC retention time of 876 s. For COc1cc(NC(=O)N2CCC(CN3CC(C)CC(C)C3)CC2)cc(OC)c1OC (stereo not given), the RP-LC retention time was 625 s. Compound O=C(Cn1ccc2ccccc21)NCc1n[nH]c(=O)c2ccccc12 has an RP-LC retention time of 657 s. With Cc1cc(S(=O)(=O)N2C[C@@H](F)C[C@H]2C(=O)N2CCc3ccccc3C2)ccc1Cl the RP-LC retention time was 1020 s. For CC(C)(C)NC(=O)c1ccc(-n2cc(CNC(=O)C3CCC3)cn2)cc1, the RP-LC retention time was 710 s. Work on CCN(C(=O)Nc1ccccc1C(=O)OC)c1nc(-c2ccc(C3CCCCC3)cc2)cs1 yielded an RP-LC retention time of 590 s. For CC1=C(C(=O)Nc2cc(Cl)ccc2C(=O)NC(C)c2ccccc2)SCCO1 (stereo not given), the RP-LC retention time was 1070 s. CN(C)CCNC(=O)C1CCN(c2nc3ccc(-c4ccccc4F)nc3s2)CC1 gave an RP-LC retention time of 658 s. Compound COc1ccc(-c2ccc(=O)n(Cc3nc(-c4ccc(Br)cc4)no3)n2)cc1 has an RP-LC retention time of 1040 s. CCCC(NC(=O)Cc1ccc(OCC)c(OCC)c1)C(=O)Nc1nc2ccccc2[nH]1 (stereo not given) gave an RP-LC retention time of 1070 s. In the case of CCCCC(=O)Nc1ccc2nc(N3CCN(CC)CC3)cc(C(=O)O)c2c1, the RP-LC retention time is reported as 571 s. For Fc1ccc(Nc2nc(-c3ccccc3)cs2)cc1, the RP-LC retention time was 1120 s. COc1cccc(Nc2nc(C)c(C(=O)Nc3ccc(F)cc3F)s2)c1 showed an RP-LC retention time of 955 s. With NC(=O)C1CCN(C(=O)c2cn(-c3cccc(Cl)c3)nn2)CC1 the RP-LC retention time was 646 s. With O=C(c1cc2ccccc2o1)N1CCN(C(=O)C2COc3ccccc3O2)CC1 (stereo not given) the RP-LC retention time was 829 s. Compound Cc1cc(N2CCC(C)CC2)n2ncnc2n1 has an RP-LC retention time of 790 s. CC1=NS(=O)(=O)N(C)C=C1C(=O)OCc1ccc(C)cc1 gave an RP-LC retention time of 975 s. Work on Cc1ccccc1C(=O)NCCN1CCN(c2ccc(Cl)cc2)CC1 yielded an RP-LC retention time of 610 s. Compound Cc1ccc(C(=O)NC2CCN(c3cc(-c4ccccc4)[nH]n3)C2)s1 (stereo not given) has an RP-LC retention time of 708 s. In the case of COc1ccc(C(=O)COC(=O)c2cccs2)cc1, the RP-LC retention time is reported as 846 s. CCc1nc2cc(N3CCCC(C(=O)NCCN4CCOCC4)C3)cnc2nc1CC (stereo not given) showed an RP-LC retention time of 594 s. For Cc1ccc(NC(=O)C2CCc3nc(N4CCOCC4)ncc3C2)cc1F (stereo not given), the RP-LC retention time was 735 s. Work on Cc1ccc(C(=O)Nc2c(-c3ccccc3)nc3ccccn23)cc1[N+](=O)[O-] yielded an RP-LC retention time of 693 s. With COc1ccc(-n2cc(C(=O)OCc3ccccn3)c3ccccc3c2=O)cc1 the RP-LC retention time was 854 s. With Cc1nc(-c2nnn(-c3ccccc3)c2C)no1 the RP-LC retention time was 769 s. Compound COCCN1C(=O)c2ccccc2C(C(=O)NCCCN2C(C)CCCC2C)C1c1cccs1 (stereo not given) has an RP-LC retention time of 633 s. Work on CCN1C(=O)NC(c2ccccc2Cl)C2=C1CN(C(C(=O)N1CCCC1)C(C)C)C2=O (stereo not given) yielded an RP-LC retention time of 680 s. CCCN(C(=O)Cc1ccccc1)c1nc(-c2ccccc2)cs1 showed an RP-LC retention time of 1320 s. Fc1ccc(-c2n[nH]c(C3CCN(C4CCCC4)CC3)n2)cc1 showed an RP-LC retention time of 611 s.
